Measurements as given in patent KR20060104555A, “사이클로펜타디온 유도체를 포함하는 항암 조성물” (한국생명공학연구원, priority 2005, dated 2006).
Values after ≈ are worked out from the molar mass of the structure shown.

Legend:
[1] = biological target: T1, farnesyl transferase (파네실 전달효소) (Rattus norvegicus, UniProt Q02293+Q04631); experiment: Farnesyl transferase inhibition, SPA with 3H-FPP and biotin-lamin B peptide; assay type: biochemical, rat (Sprague Dawley); details: 50% inhibitory concentration; room temperature, 30 min
T1 construct: Q 세파로즈 고속 칼럼(Q Sepharose Fast Flow column)을 이용하여 부분 정제한 것을 사용하였다; from tissue; host or cells: rat (Sprague Dawley, male) brain homogenate, partially purified on Q Sepharose Fast Flow

Solubility = assay type: physicochemical
[2] = test system: colorectal cancer cells HCT116 (대장암세포 HCT116); experiment: WST-1 growth inhibition, HCT116; assay type: cell-based; details: Homo sapiens, HCT-116, HCT116, 48 h
[3] = test system: colorectal cancer cells HCA-7 (대장암세포 HCA-7); experiment: WST-1 growth inhibition, HCA-7; assay type: cell-based; details: Homo sapiens, HCA-7, 48 h
[4] = test system: colorectal cancer cells SW620 (대장암세포 SW620); experiment: WST-1 growth inhibition, SW620; assay type: cell-based; details: Homo sapiens, SW-620, SW620, 48 h
[5] = test system: lung cancer cells NCI-H23 (폐암세포 NCI-H23); experiment: WST-1 growth inhibition, NCI-H23; assay type: cell-based; details: Homo sapiens, NCI-H23, 48 h
[6] = test system: lung cancer cells A549 (폐암세포 A549); experiment: WST-1 growth inhibition, A549; assay type: cell-based; details: Homo sapiens, A549, 48 h
[7] = test system: breast cancer cells MDA-MB-231 (유방암세포 MDA-MB-231); experiment: WST-1 growth inhibition, MDA-MB-231; assay type: cell-based; details: Homo sapiens, MDA-MB-231, 48 h
HEK293 (신장암세포 HEK293) = experiment: WST-1 growth inhibition, HEK293; assay type: cell-based; details: Homo sapiens, HEK293, 48 h
[8] = test system: prostate cancer cells DU145 (전립선암세포 DU145); experiment: WST-1 growth inhibition, DU145; assay type: cell-based; details: Homo sapiens, DU-145, DU145, 48 h

| IC50 [1] [µM] | solubility (Solubility; Alcohols, DMSO) | solubility (Solubility; Hexane, H2O) | GI50 [2] [µg/mL] | GI50 [3] [µg/mL] | GI50 [4] [µg/mL] | GI50 [5] [µg/mL] | GI50 [6] [µg/mL] | GI50 [7] [µg/mL] | GI50 [8] [µg/mL] | Structure (SMILES) | GI50 (HEK293 (신장암세포 HEK293)) [µg/mL] |
| --- | --- | --- | --- | --- | --- | --- | --- | --- | --- | --- | --- |
| 33.3 | 가용성 | 불용성 | – | – | – | – | – | – | – | COC1=C(OC)C(=O)C(=C(O)/C=C/c2ccccc2)C1=O [Linderone, linderone] | – |
| 125 | 가용성 | 불용성 | – | – | – | – | – | – | – | COC1=CC(=O)C(=C(O)/C=C/c2ccccc2)C1=O [Lucidone, lucidone] | – |
| 43.3 | 가용성 | 불용성 | 0.45 (≈ 1.5 µM) | 0.52 (≈ 1.73 µM) | 3.5 (≈ 11.7 µM) | 1.1 (≈ 3.66 µM) | 3.2 (≈ 10.7 µM) | 3.8 (≈ 12.7 µM) | – | COC(/C=C/c1ccccc1)=C1C(=O)C(OC)=C(OC)C1=O [Methyllinderone, methyllinderone] | 3 (≈ 9.99 µM) |
| 40.7 | 가용성 | 불용성 | 0.26 (≈ 0.962 µM) | 0.39 (≈ 1.44 µM) | 2 (≈ 7.4 µM) | 1 (≈ 3.7 µM) | 15 (≈ 55.5 µM) | 3.5 (≈ 12.9 µM) | 1.8 (≈ 6.66 µM) | COC1=CC(=O)C(=C(/C=C/c2ccccc2)OC)C1=O [Methyllucidone, methyllucidone] | 4.8 (≈ 17.8 µM) |
